Data taken from US10287295B2, “TGF-β inhibitors” (Rigel Pharmaceuticals, Inc., priority 2015, dated 2019).

Legend:
[1] = tested on: GDF8 signaling (GDF pSMAD, MPC11); assay: AlphaScreen SureFire SMAD3 (p-Ser423/425) assay, inhibition of GDF8 signaling; format: cell-based; settings: Mus musculus, MPC-11, inhibition of GDF8 signaling, p-SMAD3 readout
[2] = tested on: TGF-β signaling (TGF-β pSMAD, MPC-11); assay: AlphaScreen SureFire SMAD3 (p-Ser423/425) assay, inhibition of TGF-β signaling; format: cell-based; settings: Mus musculus, MPC-11, inhibition of TGF-β signaling, p-SMAD3 readout

Row | Structure (SMILES) | IC50 [1] | IC50 [2]
1 | Cn1cnc(-c2ccc(F)c(F)c2)c1-c1ccc2ncsc2c1 [Compound 67, 6-(4-(3,4-Difluorophenyl)-1-methyl-1H-imidazol-5-yl)benzo[d]thiazole] | 580 nM | 1680 nM
2 | Cn1cnc(-c2ccc(F)c(F)c2)c1-c1ccc2nccnc2c1 [Compound 68, 6-(4-(3,4-Difluorophenyl)-1-methyl-1H-imidazol-5-yl)quinoxaline] | 1050 nM | 2870 nM
3 | COc1ccc(-c2ncn(C)c2-c2ccc3[nH]ncc3c2)cc1 [Compound 69, 5-(4-(4-Methoxyphenyl)-1-methyl-1H-imidazol-5-yl)-1H-indazole] | 140 nM | 1770 nM
4 | COc1ccc(-c2ncn(C)c2-c2ccc3cn[nH]c3c2)cc1 [Compound 70, 6-(4-(4-Methoxyphenyl)-1-methyl-1H-imidazol-5-yl)-1H-indazole] | 700 nM | 5220 nM
5 | Cc1nc(-c2ccc(F)c(C)c2)c(-c2ccc3[nH]ncc3c2)[nH]1 [Compound 71, 5-(4-(4-Fluoro-3-methylphenyl)-2-methyl-1H-imidazol-5-yl)-1H-indazole] | 90 nM | 800 nM
6 | Cc1nc(-c2ccc(F)c(C)c2)c(-c2ccc3cn[nH]c3c2)[nH]1 [Compound 72, 6-(4-(4-Fluoro-3-methylphenyl)-2-methyl-1H-imidazol-5-yl)-1H-indazole] | 100 nM | 970 nM
7 | Cc1nc(-c2ccc(F)c(C)c2)c(-c2ccc3ncsc3c2)[nH]1 [Compound 73, 6-(4-(4-Fluoro-3-methylphenyl)-2-methyl-1H-imidazol-5-yl)benzo[d]thiazole] | 100 nM | 950 nM
8 | Cc1nc(-c2ccc(F)c(C)c2)c(-c2ccc3nccn3c2)[nH]1 [Compound 74, 6-(4-(4-Fluoro-3-methylphenyl)-2-methyl-1H-imidazol-5-yl)imidazo[1,2-a]pyridine] | 200 nM | 1410 nM
9 | Cc1nc(-c2ccc(F)c(C)c2)c(-c2ccc3ncccc3c2)[nH]1 [Compound 75, 6-(4-(4-Fluoro-3-methylphenyl)-2-methyl-1H-imidazol-5-yl)quinoline] | 510 nM | 4390 nM
10 | Cc1nc(-c2ccc(F)c(C)c2)c(-c2ccc3nccnc3c2)[nH]1 [Compound 76, 6-(4-(4-Fluoro-3-methylphenyl)-2-methyl-1H-imidazol-5-yl)quinoxaline] | 190 nM | 1210 nM
11 | Cc1nc(-c2ccc(F)cc2)c(-c2ccc3[nH]ncc3c2)[nH]1 [Compound 77, 5-(4-(4-Fluorophenyl)-2-methyl-1H-imidazol-5-yl)-1H-indazole] | 220 nM | 1430 nM
12 | Cc1nc(-c2ccc(F)cc2)c(-c2ccc3cn[nH]c3c2)[nH]1 [Compound 78, 6-(4-(4-Fluorophenyl)-2-methyl-1H-imidazol-5-yl)-1H-indazole] | 290 nM | 2470 nM
13 | Cc1nc(-c2ccc(F)cc2)c(-c2ccc3ncn(C)c3c2)[nH]1 [Compound 79, 6-(4-(4-Fluorophenyl)-2-methyl-1H-imidazol-5-yl)-1-methyl-1H-benzo[d]imidazole] | 110 nM | 850 nM
14 | Cc1nc(-c2ccc(F)cc2)c(-c2ccc3ncsc3c2)[nH]1 [Compound 80, 6-(4-(4-Fluorophenyl)-2-methyl-1H-imidazol-5-yl)benzo[d]thiazole] | 220 nM | 1630 nM
15 | Cc1nc(-c2ccc(F)cc2)c(-c2ccc3nccn3c2)[nH]1 [Compound 81, 6-(4-(4-Fluorophenyl)-2-methyl-1H-imidazol-5-yl)imidazo[1,2-a]pyridine] | 390 nM | 2620 nM
16 | Cc1nc(-c2ccc(F)cc2)c(-c2ccc3nccnc3c2)[nH]1 [Compound 82, 6-(4-(4-Fluorophenyl)-2-methyl-1H-imidazol-5-yl)quinoxaline] | 480 nM | 3270 nM
17 | Cc1nc(-c2ccc(F)c(F)c2)c(-c2ccc3[nH]ncc3c2)[nH]1 [Compound 83, 5-(4-(3,4-Difluorophenyl)-2-methyl-1H-imidazol-5-yl)-1H-indazole] | 130 nM | 1330 nM
18 | Cc1nc(-c2ccc(F)c(F)c2)c(-c2ccc3cn[nH]c3c2)[nH]1 [Compound 84, 6-(4-(3,4-Difluorophenyl)-2-methyl-1H-imidazol-5-yl)-1H-indazole] | 320 nM | 2900 nM
19 | Cc1nc(-c2ccc(F)c(F)c2)c(-c2ccc3ncn(C)c3c2)[nH]1 [Compound 85, 6-(4-(3,4-Difluorophenyl)-2-methyl-1H-imidazol-5-yl)-1-methyl-1H-benzo[d]imidazole] | 180 nM | 670 nM
20 | Cc1nc(-c2ccc(F)c(F)c2)c(-c2ccc3ncsc3c2)[nH]1 [Compound 86, 6-(4-(3,4-Difluorophenyl)-2-methyl-1H-imidazol-5-yl)benzo[d]thiazole] | 220 nM | 1280 nM
21 | Cc1nc(-c2ccc(F)c(F)c2)c(-c2ccc3nccn3c2)[nH]1 [Compound 87, 6-(4-(3,4-Difluorophenyl)-2-methyl-1H-imidazol-5-yl)imidazo[1,2-a]pyridine] | 330 nM | 3460 nM

Row | Structure (SMILES) | IC50 [1] | IC50 [2]
22 | Cc1nc(-c2ccc(F)c(F)c2)c(-c2ccc3ncccc3c2)[nH]1 [Compound 88, 6-(4-(3,4-Difluorophenyl)-2-methyl-1H-imidazol-5-yl)quinoline] | 1020 nM | 11500 nM
23 | Cc1nc(-c2ccc(F)c(F)c2)c(-c2ccc3nccnc3c2)[nH]1 [Compound 89, 6-(4-(3,4-Difluorophenyl)-2-methyl-1H-imidazol-5-yl)quinoxaline] | 430 nM | 4190 nM
24 | Cc1nc(-c2cc(F)c(F)c(F)c2)c(-c2ccc3[nH]ncc3c2)[nH]1 [Compound 90, 5-(2-Methyl-4-(3,4,5-trifluorophenyl)-1H-imidazol-5-yl)-1H-indazole] | 630 nM | 3560 nM
25 | Cc1nc(-c2cc(F)c(F)c(F)c2)c(-c2ccc3cn[nH]c3c2)[nH]1 [Compound 91, 6-(2-Methyl-4-(3,4,5-trifluorophenyl)-1H-imidazol-5-yl)-1H-indazole] | 390 nM | 2230 nM
26 | Cc1nc(-c2cc(F)c(F)c(F)c2)c(-c2ccc3ncnn3c2)[nH]1 [Compound 92, 6-(2-Methyl-4-(3,4,5-trifluorophenyl)-1H-imidazol-5-yl)-[1,2,4]triazolo[1,5-a]pyridine] | 470 nM | 2270 nM
27 | Cc1nc(-c2cc(F)c(F)c(F)c2)c(-c2ccc3ncsc3c2)[nH]1 [Compound 93, 6-(2-Methyl-4-(3,4,5-trifluorophenyl)-1H-imidazol-5-yl)benzo[d]thiazole] | 300 nM | 2340 nM
28 | Cc1nc(-c2cc(F)c(F)c(F)c2)c(-c2ccc3nccn3c2)[nH]1 [Compound 94, 6-(2-Methyl-4-(3,4,5-trifluorophenyl)-1H-imidazol-5-yl)imidazo[1,2-a]pyridine] | 580 nM | 2910 nM
29 | Cc1nc(-c2cc(F)c(F)c(F)c2)c(-c2ccc3ncccc3c2)[nH]1 [Compound 95, 6-(2-Methyl-4-(3,4,5-trifluorophenyl)-1H-imidazol-5-yl)quinoline] | 300 nM | 1880 nM
30 | Cc1nc(-c2cc(F)c(F)c(F)c2)c(-c2ccc3nccnc3c2)[nH]1 [Compound 96, 6-(2-Methyl-4-(3,4,5-trifluorophenyl)-1H-imidazol-5-yl)quinoxaline] | 440 nM | 2430 nM
31 | Cc1nc(-c2cc(F)c(F)cc2F)c(-c2ccc3[nH]ncc3c2)[nH]1 [Compound 97, 5-(2-Methyl-4-(2,4,5-trifluorophenyl)-1H-imidazol-5-yl)-1H-indazole] | 100 nM | 540 nM
32 | Cc1nc(-c2cc(F)c(F)cc2F)c(-c2ccc3ncnn3c2)[nH]1 [Compound 98, 6-(2-Methyl-4-(2,4,5-trifluorophenyl)-1H-imidazol-5-yl)-[1,2,4]triazolo[1,5-a]pyridine] | 50 nM | 190 nM
33 | Cc1nc(-c2cc(F)c(F)cc2F)c(-c2ccc3ncsc3c2)[nH]1 [Compound 99, 6-(2-Methyl-4-(2,4,5-trifluorophenyl)-1H-imidazol-5-yl)benzo[d]thiazole] | 40 nM | 240 nM
34 | Cc1nc(-c2cc(F)c(F)cc2F)c(-c2ccc3ncccc3c2)[nH]1 [Compound 100, 6-(2-Methyl-4-(2,4,5-trifluorophenyl)-1H-imidazol-5-yl)quinoline] | 170 nM | 1370 nM
35 | Cc1nc(-c2cccc(Cl)c2)c(-c2ccc3[nH]ncc3c2)[nH]1 [Compound 101, 5-(4-(3-Chlorophenyl)-2-methyl-1H-imidazol-5-yl)-1H-indazole] | 140 nM | 500 nM
36 | Cc1nc(-c2cccc(Cl)c2)c(-c2ccc3ncnn3c2)[nH]1 [Compound 103, 6-(4-(3-Chlorophenyl)-2-methyl-1H-imidazol-5-yl)-[1,2,4]triazolo[1,5-a]pyridine] | 130 nM | 690 nM
37 | Cc1nc(-c2cccc(Cl)c2)c(-c2ccc3nccn3c2)[nH]1 [Compound 104, 6-(4-(3-Chlorophenyl)-2-methyl-1H-imidazol-5-yl)imidazo[1,2-a]pyridine] | 80 nM | 510 nM
38 | CCc1nc(-c2ccc(F)c(C)c2)c(-c2ccc3[nH]ncc3c2)[nH]1 [Compound 106, 5-(2-Ethyl-4-(4-fluoro-3-methylphenyl)-1H-imidazol-5-yl)-1H-indazole] | 150 nM | 920 nM
39 | CCc1nc(-c2ccc(F)c(C)c2)c(-c2ccc3cn[nH]c3c2)[nH]1 [Compound 107, 6-(2-Ethyl-4-(4-fluoro-3-methylphenyl)-1H-imidazol-5-yl)-1H-indazole] | 340 nM | 1850 nM
40 | CCc1nc(-c2ccc(F)c(C)c2)c(-c2ccc3ncnn3c2)[nH]1 [Compound 108, 6-(2-Ethyl-4-(4-fluoro-3-methylphenyl)-1H-imidazol-5-yl)-[1,2,4]triazolo[1,5-a]pyridine] | 80 nM | 400 nM
41 | CCc1nc(-c2ccc(F)c(C)c2)c(-c2ccc3ncsc3c2)[nH]1 [Compound 109, 6-(2-Ethyl-4-(4-fluoro-3-methylphenyl)-1H-imidazol-5-yl)benzo[d]thiazole] | 150 nM | 870 nM
